From paper PMC9546217, “Exploring novel nitrofuranyl sulfonohydrazides as anti‐Leishmania and anti‐cancer agents: Synthesis, in vitro efficacy and hit identification” (Chemical Biology & Drug Design, 2022)

Columns and labels:
[1] = tested on: Staphylococcus aureus (ATCC 25923); design: method as in Alsaeedi et al., [2015]; conditions: diffusion method; ref Alsaeedi et al., [2015]; cited from earlier work
[2] = tested on: Escherichia coli (ATCC 25922); design: method as in Alsaeedi et al., [2015]; conditions: diffusion method; ref Alsaeedi et al., [2015]; cited from earlier work
[3] = tested on: Salmonella susi (ATTC 13070); design: method as in Alsaeedi et al., [2015]; conditions: diffusion method; ref Alsaeedi et al., [2015]; cited from earlier work
Vero cells = assay: in vitro
Method: The assay method is available in the Supinfo S1.
African green monkey kidney epithelial (Vero) cells (Cellonex, South Africa) were cultured and the basal cytotoxicity of the synthesized compounds with antileishmanial and/or anticancer activity was evaluated using the resazurin assay, as described in Mangwegape et al. ^4 Emetine served as the standard cytotoxic drug. Further use of reference drugs, controls, data analysis, calculations and IC50 determinations were identical to that of the antileishmanial assay.

Row | Molecule | antimicrobial activity (inhibition zone) [1] | antimicrobial activity (inhibition zone) [2] | inhibition zone [3] | IC50 (Vero cells)
1 | Cc1ccc(S(=O)(=O)N/N=C/c2ccc([N+](=O)[O-])o2)cc1 [2c, (E)-4-Methyl-N'-[(5-nitrofuran-2-yl)methylene]benzenesulfonohydrazide] | no activity | no activity | 20 mm | 
2 | (E)-2,4,6-Trimethyl-N'-[(5-nitrofuran-2-yl)methylene]benzenesulfonohydrazide [2e] |  |  |  | 39.8 ± 5.89 µM
